Source: patent US6429229B1, “Keto acid salts and amine derivatives, and their use for preparing medicines” (Chiesi S.A., priority 1998, dated 2002)

Columns and labels:
colic distension in rat [1] = test: Colic distension in rat (colon irritated with 1% acetic acid, balloon distension, abdominal cramps counted); type: in vivo; conditions: for Mean number of abdominal cramps ± standard error: 10 min colic distension, * = different from placebo at p < 0.05 (Dunnett); for Dose at/from which active in colic distension / Activity in the model of colic distension (in words): oral route; for Activity in the model of colic distension (in words): 1 to 20 mg/kg
Excerpt: This physiopathological mechanism inspired the creation of the model of distension of the colon first irritated with 1% acetic acid, in rat. […] IIS is characterized by the presence of abdominal pain. Patients having this pathology have a lowered threshold of digestive sensitivity.
The analgesic activity was studied on the model of digestive pain in observed rat. This pain is brought about by distension of the colon with a balloon.
Male Sprague-Dawley rats of about 180 g, fasted from the day before, are used. Under light fluothane anesthesia, an intrarectal probe is introduced 5 cm into the anus and 1.5 ml of 1% acetic acid is injected. An hour and 30 minutes after irritation, a latex balloon (empty diameter 2 mm, length 1 cm) mounted on a polyethylene catheter is introduced into the colon to the site of the irritation.
The product to be tested or the vehicle (distilled water) is administered per os in a volume of 1 ml, then the rat is observed on a Petri dish.
Distension of the colon is carried out 2 hours and 20 minutes after irritation. It is effected at a fixed volume of 1.5 ml of distilled water. The colic distension gives rise to digestive pain manifested by abdominal cramps whose number reflects the intensity of the pain. The colic distension is maintained for 10 minutes in the course of which the abdominal cramps are counted.
Statistical analysis is carried out with the help of the Dunnett test which compares a same group of vehicle animals (40) to several groups of rats (six animals per group) having received the studied molecules. The threshold of significance is fixed at 5%.
The molecules are tested by the oral route at 1-10-20 mg/kg. They are dissolved in distilled water.
The vehicle used as placebo is comprised by distilled water.
Comparative tests 1 to 5 are products available commercially and are used as such, except ornithine chlorhydrate which is salted out by methods known in the literature and stored in solution in water.

colic distension in rat [2] = conditions: cited from earlier work; for Activity on the model of colic distension (in words): background statement
somatic pain test in rat = conditions: doses between 300 and 1000 mg/kg by subcutaneous route in rat; cited from earlier work
writhing test in mice = conditions: 500 and 1000 mg/kg by intravenous route in mice; cited from earlier work
[3] = tested on: writhing test in rat or a mouse; conditions: i.p. phenylbenzoquinone or 3% acetic acid; cited from earlier work

## NC(=O)CC[C@H](N)C(=O)O [Comparison 4, Glutamine]
Colic distension in rat [1]; 1 mg/kg p.o.
  Mean number of abdominal cramps ± standard error: 21 ± 2
Colic distension in rat [1]
  Dose at/from which active in colic distension: 10 mg/kg
Colic distension in rat [2]; 6 mg/kg by rectal route in rat (local administration on the irritated colic mucosa)
  Activity in the test of colic distension (in words): active

## Ornithine and Arginine Keto-glutarate [Example 4]
Colic distension in rat [1]; 1 mg/kg p.o.
  Mean number of abdominal cramps ± standard error: 18 ± 2

## Mono-ornithine Keto-butyrate [Example 6]
Colic distension in rat [1]
  Dose at/from which active in colic distension: ≥ 1 mg/kg

## O=C(O)CCC(=O)C(=O)O [Comparison 1, α-keto-glutaric acid]
Colic distension in rat [1]; 1 mg/kg p.o.
  Mean number of abdominal cramps ± standard error: 17 ± 1
Colic distension in rat [1]; 10 mg/kg p.o.
  Mean number of abdominal cramps ± standard error: 17 ± 4
Colic distension in rat [1]; 20 mg/kg p.o.
  Mean number of abdominal cramps ± standard error: 22 ± 6
Colic distension in rat [1]
  Activity in the model of colic distension (in words): inactive

## CCC(=O)C(=O)O [Comparison 3, α-keto-butyric acid]
Colic distension in rat [1]; 1 mg/kg p.o.
  Mean number of abdominal cramps ± standard error: 19 ± 2
Colic distension in rat [1]; 10 mg/kg p.o.
  Mean number of abdominal cramps ± standard error: 20 ± 3
Colic distension in rat [1]; 20 mg/kg p.o.
  Mean number of abdominal cramps ± standard error: 19 ± 3
Colic distension in rat [1]
  Activity in the model of colic distension (in words): inactive

## Di-ornithine Keto-glutarate [Example 2]
Colic distension in rat [1]
  Dose at/from which active in colic distension: 1 mg/kg

## Ornithine and Glutamine Keto-glutarate [Example 5]
Colic distension in rat [1]
  Dose at/from which active in colic distension: ≥ 1 mg/kg

## Di-arginine Keto-glutarate [Example 3]
Colic distension in rat [1]; 1 mg/kg p.o.
  Mean number of abdominal cramps ± standard error: 17 ± 9

## Cl.NCCC[C@H](N)C(=O)O [Comparison 2, Ornithine, HCl]
Colic distension in rat [1]; 1 mg/kg p.o.
  Mean number of abdominal cramps ± standard error: 20 ± 3
Colic distension in rat [1]; 10 mg/kg p.o.
  Mean number of abdominal cramps ± standard error: 19 ± 6
Colic distension in rat [1]; 20 mg/kg p.o.
  Mean number of abdominal cramps ± standard error: 18 ± 6
Colic distension in rat [1]
  Activity in the model of colic distension (in words): inactive
Somatic pain test in rat
  Activity in a somatic pain test (in words): active
Writhing test in mice
  Activity in the writhing test (in words): active

## CC(=O)Nc1ccc(O)cc1 [paracetamol]
[3]
  Activity in the writhing test (in words): active
Colic distension in rat [2]
  Activity on the model of colic distension (in words): inactive

## Mono-ornithine Keto-glutarate [Example 1]
Colic distension in rat [1]
  Dose at/from which active in colic distension: 1 mg/kg

## N=C(N)NCCC[C@H](N)C(=O)O [Comparison 5, Arginine]
Colic distension in rat [1]; 1 mg/kg p.o.
  Mean number of abdominal cramps ± standard error: 20 ± 6
Colic distension in rat [1]; 10 mg/kg p.o.
  Mean number of abdominal cramps ± standard error: 20 ± 9
Colic distension in rat [1]
  Dose at/from which active in colic distension: ≥ 20 mg/kg

## CN1CC[C@]23c4c5ccc(O)c4O[C@H]2[C@@H](O)C=C[C@H]3[C@H]1C5 [Morphine]
Colic distension in rat [2]
  Activity on the model of colic distension (in words): active

## CC(=O)Oc1ccccc1C(=O)O [aspirin]
[3]
  Activity in the writhing test (in words): active
Colic distension in rat [2]
  Activity on the model of colic distension (in words): inactive
